# Laboratory results taken from patent US20050250090A1, “Assay systems and methods for detecting molecules that interact with SK2 channels” (priority 2003, published 2005).
# Bridge positions count the residues as written; N and C are the ends. Peptide text beside a SMILES is read from it.
# Biological target: hSK2A^+ (Homo sapiens, UniProt Q9H2S1, DUP58-58)
# Assay: Membrane potential sensitive dye fluorescence assay (FLIPR384) in tsA201 cells stably expressing SK2
# Type: cell-based
# Conditions: for Hill coefficient (nH): inhibition of ATP/Tg induced decrease in fluorescence, FIG. 9; for effect on the fluorescence signals (responses to ATP/Tg and Cs+): 10 minutes incubation
# Method: These cells were plated in a black optical bottom 384 well assay plate at a density of 8×10^6 cells/plate. […] After a 30-minute incubation in the voltage sensitive dye, the cell plate was transferred to a fluorescence plate reader (FLIPR384™, Molecular Devices), and ten baseline fluorescence readings were obtained.
# Intracellular Ca^2+ levels of the cells were raised by addition of ATP (200 μM final concentration) and thapsigargin (1 μM final concentration). […] In FIG. 8, time is represented in seconds on the X-axis, and fluorescence is represented in au on the Y-axis. ATP/Tg addition is indicated at time 1, and CsCl addition is indicated at time II.
# The magnitude of the ATP/Tg induced decrease in fluorescence was measured in the presence of each of a panel of known SK2 inhibitors. […]
# Sequence of hSK2A^+ (Q9H2S1 with tags, fused parts or gaps DUP58-58): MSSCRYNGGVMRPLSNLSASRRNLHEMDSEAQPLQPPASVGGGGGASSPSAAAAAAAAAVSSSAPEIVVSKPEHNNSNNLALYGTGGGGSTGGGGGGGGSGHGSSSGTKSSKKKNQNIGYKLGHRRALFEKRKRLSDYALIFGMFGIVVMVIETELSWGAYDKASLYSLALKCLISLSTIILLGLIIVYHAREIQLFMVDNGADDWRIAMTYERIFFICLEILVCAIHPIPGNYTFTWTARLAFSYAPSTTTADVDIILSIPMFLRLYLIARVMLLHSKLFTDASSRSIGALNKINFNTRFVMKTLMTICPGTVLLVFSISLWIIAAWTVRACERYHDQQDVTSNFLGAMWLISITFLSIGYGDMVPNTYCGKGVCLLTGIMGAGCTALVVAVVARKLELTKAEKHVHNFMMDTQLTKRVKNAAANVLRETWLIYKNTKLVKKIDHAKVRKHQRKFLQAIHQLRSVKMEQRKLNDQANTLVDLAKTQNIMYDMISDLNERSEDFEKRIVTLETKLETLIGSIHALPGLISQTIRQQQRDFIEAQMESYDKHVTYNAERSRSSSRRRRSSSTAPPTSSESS
Compound,Hill coefficient (nH),effect on the fluorescence signals (responses to ATP/Tg and Cs+) (tested at 833 nM),other results
O=c1[nH]c2cc(C(F)(F)F)ccc2n1-c1cc(C(F)(F)F)ccc1O [NS1619],2,–,–
C[N+]1(C)CCc2cc3c(cc2[C@H]1[C@@H]1OC(=O)c2c1ccc1c2OCO1)OCO3.[Br-] [bicuculline methobromide],1,–,–
CC(N/C(=N\C#N)Nc1ccncc1)C(C)(C)C (centres unmarked) [pinacidil],–,–,effect on the fluorescence signals (responses to ATP/Tg and Cs+) (tested at 286 μM): no effect
C=C[C@H]1C[N@@]2CC[C@H]1C[C@@H]2[C@@H](O)c1ccnc2ccc(OC)cc12 [quinidine],0.6,–,–
"CC[C@H](C)[C@@H]1NC(=O)[C@@H]2CSSC[C@H](NC(=O)[C@H](Cc3ccccc3)NC(=O)[C@H](C)N)C(=O)N[C@@H](CC(N)=O)C(=O)N[C@@H](CC(C)C)C(=O)N[C@@H](CCCNC(=N)N)C(=O)N[C@@H](CCSC)C(=O)N[C@H]3CSSC[C@H](NC(=O)[C@H](CCCCN)NC(=O)[C@H](CC(=O)O)NC(=O)CNC1=O)C(=O)N[C@@H](CCC(=O)O)C(=O)N[C@H](C(=O)N[C@H](C(=O)N[C@@H](CCCCN)C(=O)N[C@@H](Cc1c[nH]cn1)C(N)=O)C(C)C)CSSC[C@H](NC(=O)[C@H](CO)NC(=O)[C@H](CC(C)C)NC(=O)[C@H](CCC(N)=O)NC3=O)C(=O)N[C@@H](CCCNC(=N)N)C(=O)N[C@@H](CO)C(=O)N[C@@H](CC(C)C)C(=O)NCC(=O)N[C@@H](CC(C)C)C(=O)N[C@@H](CC(C)C)C(=O)NCC(=O)N[C@@H](CCCCN)C(=O)N2 [scyllatoxin] (H-AFCNLRMCQLSCRSLGLLGKCIGDKCECVKH-NH2; disulfide 3-21, 8-26, 12-28)",–,–,IC50: 1.1 nM
iberiotoxin (QFTDVDCSVSKECWSVCKDLFGVDRGKCMGKKCRCYQ) [toxin isolated from Mesobuthus tamulus],–,no effect,–
noxiustoxin (TIINVKCTSPKQCSKPCKELYGSSAGAKCMNGKCKCYNN),–,no effect,–
α-dendrotoxin (QPRRKLCILHRNPGRCYDKIPAFYYNQKKKQCERFDWSGCGGNSNRFKTIEECRRTCIG),–,no effect,–
